Test [1] deals with T1, human α1G T-type channels (Homo sapiens, UniProt O43497).
T1 construct: expressed in transfected cells; host or cells: HEK 293
Briefly: T-type calcium channel block, whole cell patch clamp in HEK cells (α1G). It is filed as cell-based. The settings on record: HEK cells, patch clamp, mainly non-inactivated protocol; values above 10 μM shown as 10 μM, below 0.30 μM shown as 0.30 μM; read-out: T-type Calcium Channel Block α1G IC50.

In test [2] the target is T2, human α1H T-type channels (Homo sapiens, UniProt O95180).
T2 construct: expressed in transfected cells; host or cells: HEK 293
The test can be described thus: T-type calcium channel block, whole cell patch clamp in HEK cells (α1H). It is filed as cell-based. The settings on record: HEK cells, patch clamp, mainly non-inactivated protocol; values above 10 μM shown as 10 μM; read-out: T-type Calcium Channel Block α1H IC50. A general note: Patch clamp records ionic current or voltage across a cell membrane.

T2 sequence (O95180 whole entry): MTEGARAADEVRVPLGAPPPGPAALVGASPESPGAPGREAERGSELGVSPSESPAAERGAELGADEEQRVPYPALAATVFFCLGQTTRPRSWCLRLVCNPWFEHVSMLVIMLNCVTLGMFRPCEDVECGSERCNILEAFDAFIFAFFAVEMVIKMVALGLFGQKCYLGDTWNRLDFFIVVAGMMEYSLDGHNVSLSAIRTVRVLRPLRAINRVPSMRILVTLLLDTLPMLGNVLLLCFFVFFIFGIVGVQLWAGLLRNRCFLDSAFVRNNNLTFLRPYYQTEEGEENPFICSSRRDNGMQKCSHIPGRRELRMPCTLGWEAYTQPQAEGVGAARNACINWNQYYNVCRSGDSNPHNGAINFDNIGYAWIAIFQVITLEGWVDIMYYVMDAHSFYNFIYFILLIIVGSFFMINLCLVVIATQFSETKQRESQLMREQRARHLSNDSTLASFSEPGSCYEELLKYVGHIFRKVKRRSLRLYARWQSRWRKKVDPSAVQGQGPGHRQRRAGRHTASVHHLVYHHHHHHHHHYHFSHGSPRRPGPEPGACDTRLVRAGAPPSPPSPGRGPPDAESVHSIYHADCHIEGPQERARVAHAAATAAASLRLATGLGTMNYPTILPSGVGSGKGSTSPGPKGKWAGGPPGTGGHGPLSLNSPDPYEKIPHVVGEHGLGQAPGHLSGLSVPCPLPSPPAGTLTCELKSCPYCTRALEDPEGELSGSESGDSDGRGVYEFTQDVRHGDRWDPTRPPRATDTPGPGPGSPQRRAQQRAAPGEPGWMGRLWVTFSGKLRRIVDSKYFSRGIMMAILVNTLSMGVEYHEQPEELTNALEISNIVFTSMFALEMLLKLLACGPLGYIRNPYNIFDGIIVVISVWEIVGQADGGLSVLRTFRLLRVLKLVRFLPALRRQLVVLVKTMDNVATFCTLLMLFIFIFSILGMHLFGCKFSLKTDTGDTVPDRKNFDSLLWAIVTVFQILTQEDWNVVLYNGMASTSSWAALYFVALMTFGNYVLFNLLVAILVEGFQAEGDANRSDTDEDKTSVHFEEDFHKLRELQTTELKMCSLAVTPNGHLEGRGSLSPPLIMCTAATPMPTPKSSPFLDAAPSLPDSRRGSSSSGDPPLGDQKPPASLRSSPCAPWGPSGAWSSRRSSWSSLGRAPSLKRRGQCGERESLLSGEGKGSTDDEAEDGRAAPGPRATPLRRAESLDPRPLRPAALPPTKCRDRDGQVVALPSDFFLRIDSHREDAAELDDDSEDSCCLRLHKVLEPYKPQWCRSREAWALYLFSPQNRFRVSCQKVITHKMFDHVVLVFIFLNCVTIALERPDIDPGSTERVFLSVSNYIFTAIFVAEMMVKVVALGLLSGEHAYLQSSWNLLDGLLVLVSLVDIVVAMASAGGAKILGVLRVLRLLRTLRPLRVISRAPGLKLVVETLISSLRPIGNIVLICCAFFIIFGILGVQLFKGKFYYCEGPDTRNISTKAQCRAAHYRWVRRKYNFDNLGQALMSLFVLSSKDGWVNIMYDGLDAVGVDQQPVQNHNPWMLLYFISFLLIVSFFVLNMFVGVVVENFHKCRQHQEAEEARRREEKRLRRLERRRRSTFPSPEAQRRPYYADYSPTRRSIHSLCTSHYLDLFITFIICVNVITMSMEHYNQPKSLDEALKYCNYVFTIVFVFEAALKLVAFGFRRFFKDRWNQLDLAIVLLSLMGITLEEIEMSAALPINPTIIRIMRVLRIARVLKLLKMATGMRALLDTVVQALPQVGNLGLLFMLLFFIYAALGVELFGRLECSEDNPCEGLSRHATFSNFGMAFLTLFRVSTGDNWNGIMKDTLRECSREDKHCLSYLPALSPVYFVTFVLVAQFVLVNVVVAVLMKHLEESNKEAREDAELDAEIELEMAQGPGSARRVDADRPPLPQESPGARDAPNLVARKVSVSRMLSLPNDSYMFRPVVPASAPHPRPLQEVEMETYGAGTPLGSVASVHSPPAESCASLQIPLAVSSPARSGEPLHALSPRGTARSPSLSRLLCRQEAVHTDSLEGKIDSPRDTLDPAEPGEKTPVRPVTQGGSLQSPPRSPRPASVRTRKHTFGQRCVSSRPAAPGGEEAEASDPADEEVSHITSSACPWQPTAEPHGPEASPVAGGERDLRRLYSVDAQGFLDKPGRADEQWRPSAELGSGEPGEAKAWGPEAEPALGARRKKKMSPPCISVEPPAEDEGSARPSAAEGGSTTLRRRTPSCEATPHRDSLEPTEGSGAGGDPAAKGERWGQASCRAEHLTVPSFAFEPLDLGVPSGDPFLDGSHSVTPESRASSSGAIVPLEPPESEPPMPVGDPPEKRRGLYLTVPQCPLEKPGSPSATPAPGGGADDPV
T1 sequence (O43497 whole entry): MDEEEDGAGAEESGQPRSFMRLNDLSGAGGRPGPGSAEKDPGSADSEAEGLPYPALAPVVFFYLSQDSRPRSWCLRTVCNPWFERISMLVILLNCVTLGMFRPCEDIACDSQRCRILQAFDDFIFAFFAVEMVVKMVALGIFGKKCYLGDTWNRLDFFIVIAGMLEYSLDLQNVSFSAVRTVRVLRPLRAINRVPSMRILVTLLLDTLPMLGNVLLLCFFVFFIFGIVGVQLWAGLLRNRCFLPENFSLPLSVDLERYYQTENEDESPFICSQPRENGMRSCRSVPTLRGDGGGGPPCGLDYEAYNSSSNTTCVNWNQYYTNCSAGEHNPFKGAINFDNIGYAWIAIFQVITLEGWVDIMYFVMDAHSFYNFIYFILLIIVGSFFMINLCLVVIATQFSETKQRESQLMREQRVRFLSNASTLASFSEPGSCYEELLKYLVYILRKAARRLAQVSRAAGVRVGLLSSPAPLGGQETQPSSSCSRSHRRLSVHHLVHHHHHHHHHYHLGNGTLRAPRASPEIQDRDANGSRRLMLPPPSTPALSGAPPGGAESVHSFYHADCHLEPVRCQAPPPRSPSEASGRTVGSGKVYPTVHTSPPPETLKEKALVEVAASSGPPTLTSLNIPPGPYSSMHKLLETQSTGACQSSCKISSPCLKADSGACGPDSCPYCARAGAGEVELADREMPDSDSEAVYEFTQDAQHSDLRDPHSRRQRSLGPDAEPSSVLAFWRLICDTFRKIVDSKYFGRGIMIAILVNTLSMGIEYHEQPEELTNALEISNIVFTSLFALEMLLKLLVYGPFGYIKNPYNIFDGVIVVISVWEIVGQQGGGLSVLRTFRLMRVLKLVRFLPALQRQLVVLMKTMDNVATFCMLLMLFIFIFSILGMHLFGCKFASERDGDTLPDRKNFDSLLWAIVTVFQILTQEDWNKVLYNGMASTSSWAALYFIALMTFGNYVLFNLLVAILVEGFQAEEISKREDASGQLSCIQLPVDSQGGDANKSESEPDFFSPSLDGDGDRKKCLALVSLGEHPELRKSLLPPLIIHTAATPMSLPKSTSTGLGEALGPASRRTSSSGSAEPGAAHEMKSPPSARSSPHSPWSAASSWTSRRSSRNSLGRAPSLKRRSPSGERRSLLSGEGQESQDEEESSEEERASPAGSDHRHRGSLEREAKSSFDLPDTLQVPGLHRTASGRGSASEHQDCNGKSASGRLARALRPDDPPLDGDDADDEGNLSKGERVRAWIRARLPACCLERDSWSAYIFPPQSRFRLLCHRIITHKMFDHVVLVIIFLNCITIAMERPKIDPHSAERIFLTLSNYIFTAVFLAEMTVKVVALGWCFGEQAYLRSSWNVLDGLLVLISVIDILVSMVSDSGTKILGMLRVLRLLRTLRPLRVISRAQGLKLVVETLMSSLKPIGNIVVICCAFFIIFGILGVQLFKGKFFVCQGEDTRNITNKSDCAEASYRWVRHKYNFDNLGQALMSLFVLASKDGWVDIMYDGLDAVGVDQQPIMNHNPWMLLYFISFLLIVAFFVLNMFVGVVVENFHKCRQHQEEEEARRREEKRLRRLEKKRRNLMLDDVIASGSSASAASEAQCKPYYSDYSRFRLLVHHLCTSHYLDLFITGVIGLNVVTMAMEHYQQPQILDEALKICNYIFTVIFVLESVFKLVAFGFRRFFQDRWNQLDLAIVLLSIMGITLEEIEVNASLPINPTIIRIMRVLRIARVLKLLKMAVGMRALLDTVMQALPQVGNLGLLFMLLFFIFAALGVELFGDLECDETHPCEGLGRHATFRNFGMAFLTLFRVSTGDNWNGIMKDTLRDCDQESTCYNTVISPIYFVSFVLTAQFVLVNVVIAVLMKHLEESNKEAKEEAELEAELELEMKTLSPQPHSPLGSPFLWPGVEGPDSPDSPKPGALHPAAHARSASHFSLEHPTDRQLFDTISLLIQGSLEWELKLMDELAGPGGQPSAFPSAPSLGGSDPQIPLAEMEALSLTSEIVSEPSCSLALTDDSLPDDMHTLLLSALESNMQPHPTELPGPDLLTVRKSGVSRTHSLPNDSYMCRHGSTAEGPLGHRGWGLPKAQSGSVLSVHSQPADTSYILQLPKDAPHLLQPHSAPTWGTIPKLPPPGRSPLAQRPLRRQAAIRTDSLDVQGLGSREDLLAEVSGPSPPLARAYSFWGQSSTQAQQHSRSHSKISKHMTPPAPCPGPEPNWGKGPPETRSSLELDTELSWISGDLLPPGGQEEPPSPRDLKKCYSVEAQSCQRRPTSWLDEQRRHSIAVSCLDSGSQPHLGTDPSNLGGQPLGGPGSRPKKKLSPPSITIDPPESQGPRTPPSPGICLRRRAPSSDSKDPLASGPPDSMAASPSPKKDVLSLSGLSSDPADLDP

As usually defined, the IC50 is the concentration that inhibits the measured activity by half. Consider `O=C(NCC1CCN(C(=O)CN2CCCC(C(F)(F)F)C2)CC1)c1cc(C(F)(F)F)cc(C(F)(F)F)c1` (centres unmarked) [Compound 255, 3,5-bis(trifluoromethyl)-N-((1-(2-(3-(trifluoromethyl)piperidin-1-yl)acetyl)piperidin-4-yl)methyl)benzamide], for which the IC50 was 570 nM in test [1] and 2340 nM in test [2].
In the same order, the values of `O=C(NCC1CCN(C(=O)CN2CCCC(F)(F)C2)CC1)c1cc(C(F)(F)F)cc(C(F)(F)F)c1` [Compound 256, N-((1-(2-(3,3-difluoropiperidin-1-yl)acetyl)piperidin-4-yl)methyl)-3,5-bis(trifluoromethyl)benzamide] are 5570 nM and above 10000 nM.
In the same order, the values of `O=C(NCC1CCN(C(=O)CNC2CC2)CC1)c1cc(C(F)(F)F)cc(C(F)(F)F)c1` [Compound 257, N-((1-(2-(cyclopropylamino)acetyl)piperidin-4-yl)methyl)-3,5-bis(trifluoromethyl)benzamide] are 3210 nM and 2420 nM.
On the same counts, the results for `CC(C)(C)C1CCN(CC(=O)N2CCC(CNC(=O)c3cc(C(F)(F)F)cc(C(F)(F)F)c3)CC2)CC1` [Compound 258, N-((1-(2-(4-tert-butylpiperidin-1-yl)acetyl)piperidin-4-yl)methyl)-3,5-bis(trifluoromethyl)benzamide] are 1180 nM and 3240 nM.
`C[C@H]1CC[C@H](NCC(=O)N2CCC(CNC(=O)c3cc(C(F)(F)F)cc(C(F)(F)F)c3)CC2)CC1` [Compound 264, N-((1-(2-((1r,4r)-4-methylcyclohexylamino)acetyl)piperidin-4-yl)methyl)-3,5-bis(trifluoromethyl)benzamide]: the figures for the half-inhibitory concentration (IC50) in test [1] and in test [2] were below 300 nM and 530 nM, respectively.
On the same counts, the results for `CC(C)(C)NCC(=O)N1CCC(CNC(=O)c2cc(F)cc(C(F)(F)F)c2)CC1` [Compound 265, N-((1-(2-(tert-butylamino)acetyl)piperidin-4-yl)methyl)-3-fluoro-5-(trifluoromethyl)benzamide] are 2060 nM and 3760 nM.
On the same counts, the results for `CCCCCNCC(=O)N1CCC(CNC(=O)c2cc(F)cc(C(F)(F)F)c2)CC1` [Compound 267, 3-fluoro-N-((1-(2-(pentylamino)acetyl)piperidin-4-yl)methyl)-5-(trifluoromethyl)benzamide] are 390 nM and 870 nM.
In the same order, the values of `CC1CCCN(CC(=O)N2CCC(CNC(=O)c3cc(F)cc(C(F)(F)F)c3)CC2)C1` (centres unmarked) [Compound 268, 3-fluoro-N-((1-(2-(3-methylpiperidin-1-yl)acetyl)piperidin-4-yl)methyl)-5-(trifluoromethyl)benzamide] are above 10000 nM and above 10000 nM.
With `CCC1CCCCN1CC(=O)N1CCC(CNC(=O)c2cc(F)cc(C(F)(F)F)c2)CC1` (centres unmarked) [Compound 269, N-((1-(2-(2-ethylpiperidin-1-yl)acetyl)piperidin-4-yl)methyl)-3-fluoro-5-(trifluoromethyl)benzamide], the IC50 in test [1] came to 1400 nM; in test [2], 3140 nM.
Consider `CN(CC(=O)N1CCC(CNC(=O)c2cc(F)cc(C(F)(F)F)c2)CC1)C1CCCCC1` [Compound 272, N-((1-(2-(cyclohexyl(methyl)amino)acetyl)piperidin-4-yl)methyl)-3-fluoro-5-(trifluoromethyl)benzamide], for which the concentration for half-maximal inhibition (IC50) is 2840 nM in test [1] and above 10000 nM in test [2].
With `O=C(NCC1CCN(C(=O)CNC2CCCC2)CC1)c1cc(F)cc(C(F)(F)F)c1` [Compound 273, N-((1-(2-(cyclopentylamino)acetyl)piperidin-4-yl)methyl)-3-fluoro-5-(trifluoromethyl)benzamide], the half-maximal inhibitory concentration (IC50) in test [1] worked out at 360 nM; in test [2] it was 1420 nM.
In the case of `CC1CCCCC1NCC(=O)N1CCC(CNC(=O)c2cc(F)cc(C(F)(F)F)c2)CC1` (centres unmarked) [Compound 274, 3-fluoro-N-((1-(2-(2-methylcyclohexylamino)acetyl)piperidin-4-yl)methyl)-5-(trifluoromethyl)benzamide], the IC50 is below 300 nM in test [1] and 660 nM in test [2].
In the same order, the values of `O=C(NCC1CCN(C(=O)CNC2CCCCC2O)CC1)c1cc(F)cc(C(F)(F)F)c1` (centres unmarked) [Compound 275, 3-fluoro-N-((1-(2-(2-hydroxycyclohexylamino)acetyl)piperidin-4-yl)methyl)-5-(trifluoromethyl)benzamide] are 1990 nM and above 10000 nM.
In the same order, the values of `O=C(NCC1CCN(C(=O)CNC2CCCCC2)CC1)c1cc(F)cc(C(F)(F)F)c1` [Compound 276, N-((1-(2-(cyclohexylamino)acetyl)piperidin-4-yl)methyl)-3-fluoro-5-(trifluoromethyl)benzamide] are 310 nM and 1090 nM.
On to `C[C@@H]1CCCCN1CC(=O)N1CCC(CNC(=O)c2cc(F)cc(C(F)(F)F)c2)CC1` [Compound 279, (R)-3-fluoro-N-((1-(2-(2-methyl-piperidin-1-yl)acetyl)piperidin-4-yl)methyl)-5-(trifluoromethyl)benzamide], for which the IC50 in test [1] and in test [2] was above 10000 nM each time.
As for `CCC1CCCN1CC(=O)N1CCC(CNC(=O)c2cc(F)cc(C(F)(F)F)c2)CC1` (centres unmarked) [Compound 280, N-((1-(2-(2-ethylpyrrolidin-1-yl)acetyl)piperidin-4-yl)methyl)-3-fluoro-5-(trifluoromethyl)benzamide], the IC50 is 9700 nM in test [1] and 5590 nM in test [2].
In the same order, the values of `O=C(NCC1CCN(C(=O)CN2CCCC(C(F)(F)F)C2)CC1)c1cc(F)cc(C(F)(F)F)c1` (centres unmarked) [Compound 282, 3-fluoro-5-(trifluoromethyl)-N-((1-(2-(3-(trifluoromethyl)piperidin-1-yl)acetyl)piperidin-4-yl)methyl)benzamide] are 2500 nM and 7160 nM.
As for `CC(C)(C)C1CCN(CC(=O)N2CCC(CNC(=O)c3cc(F)cc(C(F)(F)F)c3)CC2)CC1` [Compound 285, N-((1-(2-(4-tert-butylpiperidin-1-yl)acetyl)piperidin-4-yl)methyl)-3-fluoro-5-(trifluoromethyl)benzamide], the IC50 is 4940 nM in test [1] and above 10000 nM in test [2].
As to `C[C@H]1CC[C@H](NCC(=O)N2CCC(CNC(=O)c3cc(F)cc(C(F)(F)F)c3)CC2)CC1` [Compound 291, 3-fluoro-N-((1-(2-((1r,4r)-4-methylcyclohexylamino)acetyl)piperidin-4-yl)methyl)-5-(trifluoromethyl)benzamide], the concentration for half-maximal inhibition (IC50) in test [1] was below 300 nM; in test [2], 510 nM.
On the same counts, the results for `CC(C)(C)C(=O)NCCN1CCC(CNC(=O)c2cccc(OC(F)(F)F)c2)CC1` [Compound 292, N-((1-(2-pivalamidoethyl)piperidin-4-yl)methyl)-3-(trifluoromethoxy)benzamide] are 360 nM and 740 nM.
For the molecule `CC(C)(C)C(=O)NCCN1CCC(CNC(=O)c2cc(F)cc(F)c2)CC1` [Compound 293, 3,5-difluoro-N-((1-(2-pivalamidoethyl)piperidin-4-yl)methyl)benzamide], the IC50 in test [1] was determined as 5180 nM; in test [2], 4070 nM.
In the same order, the values of `CC(C)(C)C(=O)NCCN1CCC(CNC(=O)c2cc(F)cc(C(F)(F)F)c2)CC1` [Compound 294, 3-fluoro-N-((1-(2-pivalamidoethyl)piperidin-4-yl)methyl)-5-(trifluoromethyl)benzamide] are 570 nM and 810 nM.

The record behind these values is US8569344B2, “N-piperidinyl acetamide derivatives as calcium channel blockers” (Zalicus Pharmaceuticals Ltd., priority 2008, dated 2013).
